Where a name gives a salt, the structure may show the parent alone. Read-outs that look alike come from different tables or passages of the source.
Columns and labels:
[1] = system: fibrin- and LPS-induced microglia activation; assay: cells; type: cell-based, rat
primary rat microglia [2] = assay: Cell toxicity (dead cells, size <150 μm2) in coated fibrin (cFib) assay;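 also: share of dead cells sized under 150 µm2 at 10 µM in fibrin-stimulated microglia HTS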
primary rat microglia [3] = assay: Cell toxicity (dead cells, size <150 μm2) in LPS assay
[4] = system: fibrin-induced microglia activation; assay: Image-based assay of fibrin-induced microglia activation (HTS and dose response); type: cell-based, rat; settings: for inhibition at 10 µM: Rattus norvegicus, Microglia, read-out: Fibrin % inhibition
[5] = system: LPS-induced microglia activation; assay: Image-based assay of LPS-induced microglia activation (HTS and dose response); type: cell-based, rat; settings: for inhibition at 10 µM: Rattus norvegicus, Microglia, read-out: LPS % inhibition
[6] = primary HTS, 10 μM, fibrin assay, dead cells size <150 μm2
[7] = primary HTS, 10 μM, LPS assay, dead cells size <150 μm2
[8] = primary HTS, 10 μM, fibrin-stimulated primary microglia
[9] = primary HTS, 10 μM, LPS-stimulated primary microglia
[10] = quadrant by fibrin and LPS inhibition in HTS of 1907 compounds
[11] = primary microglia HTS, fibrin stimulation, decreased size (<150 μm^2) as marker of toxicity
[12] = primary microglia HTS, LPS stimulation, decreased size (<150 μm^2) as marker of toxicity
[13] = primary microglia HTS, fibrin stimulation, increased cell size (>800 μm^2) as marker of activation
[14] = primary microglia HTS, LPS stimulation, increased cell size (>800 μm^2) as marker of activation
[15] = HTS of 1907 compounds, quadrant by fibrin and LPS inhibition
[16] = primary microglia HTS, 10 μM, fibrin assay, cell size <150 μm^2 as marker of toxicity
[17] = primary microglia HTS, 10 μM, LPS assay, cell size <150 μm^2 as marker of toxicity
[18] = primary microglia HTS, 10 μM, fibrin-stimulated, cell size >800 μm^2 as marker of activation
[19] = primary microglia HTS, 10 μM, LPS-stimulated, cell size >800 μm^2 as marker of activation
[20] = 48 h, primary microglia HTS, LPS stimulation, increased cell size (>800 μm^2) as marker of activation
[21] = primary microglia HTS, fibrin stimulation, toxicity = cell size <150 μm2
[22] = primary microglia HTS, LPS stimulation, toxicity = cell size <150 μm2
[23] = primary microglia HTS, fibrin stimulation, activation = cell size >800 μm2
[24] = 48 h, primary microglia HTS, LPS stimulation, activation = cell size >800 μm2

Row | Compound | Quadrant (FIG. 5b) [1, 10] | Fibrin % cell toxicity (primary rat microglia [2]; [11]) | LPS % cell toxicity (primary rat microglia [3]; [12]) | inhibition at 10 µM [4, 13] | inhibition at 10 µM [5, 20] | further results
1 | C[N+](C)(C)CCOC(N)=O [Carbachol] |  |  |  |  |  | Quadrant (FIG. 5b) ([1]; primary HTS, 10 μM): Q4; Fibrin % cell toxicity (primary rat microglia [2]; [6]): 1%; LPS % cell toxicity (primary rat microglia [3]; [7]): 0%; inhibition at 10 µM [4, 8]: -18%; inhibition at 10 µM [5, 9]: 6%
2 | CCN[C@H]1CN(CCCOC)S(=O)(=O)c2sc(S(N)(=O)=O)cc21 [Brinzolamide] |  |  |  |  |  | Quadrant (FIG. 5b) ([1]; primary HTS, 10 μM): Q4; Fibrin % cell toxicity (primary rat microglia [2]; [6]): 0%; LPS % cell toxicity (primary rat microglia [3]; [7]): 0%; inhibition at 10 µM [4, 8]: -3%; inhibition at 10 µM [5, 9]: 5%
3 | Nonoxynol-9 | Q4 | 0% | 0% |  |  | Fibrin % inhibition [4, 13]: −7%; LPS % inhibition [5, 14]: 23%
4 | O=C(O)CCC(=O)Nc1ccc(S(=O)(=O)Nc2nccs2)cc1 [Succinylsulfathiazole] |  |  |  |  |  | Quadrant (FIG. 5b) [1, 15]: Q4; Fibrin % cell toxicity (primary rat microglia [2]; [16]): 1%; LPS % cell toxicity (primary rat microglia [3]; [17]): 1%; inhibition at 10 µM [4, 18]: 15%; inhibition at 10 µM [5, 19]: 16%
5 | COc1ccccc1OCC(O)COC(N)=O (stereo not shown) [Methocarbamol] | Q4 | 0% | 0% | 4% | 10% | 
6 | C[N+](C)(C)C[C@H](O)CC(=O)[O-] [Levocarnitine] | Q4 |  |  |  |  | Fibrin % cell toxicity (primary rat microglia [2]; [21]): 1%; LPS % cell toxicity (primary rat microglia [3]; [22]): 0%; inhibition at 10 µM [4, 23]: 8%; inhibition at 10 µM [5, 24]: 15%
7 | Nc1nc(=O)[nH]cc1F [Flucytosine, 5-fluorocytosine] | Q4 |  |  |  |  | Fibrin % cell toxicity (primary rat microglia [2]; [21]): 1%; LPS % cell toxicity (primary rat microglia [3]; [22]): 1%; Fibrin % inhibition [4, 23]: 13%; LPS % inhibition ([5]; primary microglia HTS, LPS stimulation, activation = cell size >800 μm2): 17%
8 | Cc1cc2c(cc1S(N)(=O)=O)S(=O)(=O)CCC2 [Meticrane] | Q4 | 0% | 0% | -33% | 9% | 
9 | CCOC(=O)NNc1nncc2ccccc12 [Todralazine Hydrochloride] |  |  |  |  |  | Quadrant (FIG. 5b) [1, 15]: Q4; Fibrin % cell toxicity (primary rat microglia [2]; [16]): 1%; LPS % cell toxicity (primary rat microglia [3]; [17]): 0%; inhibition at 10 µM [4, 18]: 0%; inhibition at 10 µM [5, 19]: 19%
10 | OCCN1C[C@H](O)[C@@H](O)[C@H](O)[C@H]1CO [Miglitol] | Q4 | 0% | 0% | -9% | 13% | 
11 | CC(C)(C)CC(C)(C)c1cc(Cc2cc(C(C)(C)CC(C)(C)C)cc(-n3nc4ccccc4n3)c2O)c(O)c(-n2nc3ccccc3n2)c1 [Bisoctrizole] |  |  |  |  |  | Quadrant (FIG. 5b) ([1]; primary HTS, 10 μM): Q4; Fibrin % cell toxicity (primary rat microglia [2]; [6]): 0%; LPS % cell toxicity (primary rat microglia [3]; [7]): 0%; inhibition at 10 µM [4, 8]: 33%; inhibition at 10 µM [5, 9]: 20%
12 | C[C@]12C/C(=C/O)C(=O)C[C@@H]1CC[C@@H]1[C@@H]2CC[C@@]2(C)[C@H]1CC[C@]2(C)O [Oxymetholone] | Q4 | 1% | 0% | -18% | -7% | 
13 | O=C(O)CCCc1ccccc1 [Gamma-Phenyl-Butyric Acid] | Q4 |  |  |  |  | Fibrin % cell toxicity (primary rat microglia [2]; [21]): 0%; LPS % cell toxicity (primary rat microglia [3]; [22]): 0%; inhibition at 10 µM [4, 23]: -36%; inhibition at 10 µM [5, 24]: 9%
14 | C[C@@H]1CN([C@H]2CC[C@](C#N)(c3ccc(F)cc3)CC2)CC[C@]1(C(=O)O)c1ccccc1 [Levocabastine] | Q4 |  |  |  |  | Fibrin % cell toxicity (primary rat microglia [2]; [21]): 1%; LPS % cell toxicity (primary rat microglia [3]; [22]): 0%; inhibition at 10 µM [4, 23]: 7%; inhibition at 10 µM [5, 24]: 4%
15 | Cn1nnnc1SCC1=C(C(=O)O)N2C(=O)[C@@H](NC(=O)[C@H](OC=O)c3ccccc3)[C@H]2SC1 [Cefamandole Nafate] |  |  |  |  |  | Quadrant (FIG. 5b) ([1]; primary HTS, 10 μM): Q4; Fibrin % cell toxicity (primary rat microglia [2]; [6]): 0%; LPS % cell toxicity (primary rat microglia [3]; [7]): 0%; inhibition at 10 µM [4, 8]: -3%; inhibition at 10 µM [5, 9]: 12%
16 | CCCCCCCCCCCCCCCC[N+](C)(C)C [Cetrimonium] | Q2 | 28% | 12% | 114% | 132% | 
17 | Cc1cc(C)cc(OCC2CNC(=O)O2)c1 (stereo not shown) [Metaxalone] | Q4 | 1% | 0% | 13% | 6% | 
18 | Cc1cc(-c2ccccc2)nnc1NCCN1CCOCC1 [Minaprine] | Q4 | 0% | 0% | -22% | 10% | 
19 | COc1ccccc1Oc1c(NS(=O)(=O)c2ccc(C(C)(C)C)cc2)nc(-c2ncccn2)nc1OCCO [Bosentan] |  |  |  |  |  | Quadrant (FIG. 5b) ([1]; primary HTS, 10 μM): Q4; Fibrin % cell toxicity (primary rat microglia [2]; [6]): 1%; LPS % cell toxicity (primary rat microglia [3]; [7]): 0%; inhibition at 10 µM [4, 8]: -14%; inhibition at 10 µM [5, 9]: 10%
20 | CC(=O)OCC(=O)[C@@]12OC3(CCCC3)O[C@@H]1C[C@H]1[C@@H]3CCC4=CC(=O)C=C[C@]4(C)[C@@]3(F)[C@@H](O)C[C@@]12C [Amcinonide] | Q2 | 7% | 6% | 112% | 119% | 
21 | N=C(N)/N=C(\N)N1CCOCC1 [Moroxydine Hydrochloride] | Q4 | 1% | 0% | -22% | 4% | 
22 | CCn1nc(C(=O)O)c(=O)c2cc3c(cc21)OCO3 [Cinoxacin] | Q2 | 50% | 12% | 117% | 115% | 
23 | C[N+]1(C)[C@@H]2CC[C@H]1C[C@@H](OC(=O)C(O)c1ccccc1)C2 (stereo partly shown) [Homatropine Methylbromide] | Q4 |  |  |  |  | Fibrin % cell toxicity (primary rat microglia [2]; [21]): 1%; LPS % cell toxicity (primary rat microglia [3]; [22]): 0%; inhibition at 10 µM [4, 23]: -18%; inhibition at 10 µM [5, 24]: 12%
24 | Cc1nnc(SCC2=C(C(=O)O)N3C(=O)[C@@H](NC(=O)Cn4cnnn4)[C@H]3SC2)s1 [Cefazolin] |  |  |  |  |  | Quadrant (FIG. 5b) ([1]; primary HTS, 10 μM): Q4; Fibrin % cell toxicity (primary rat microglia [2]; [6]): 1%; LPS % cell toxicity (primary rat microglia [3]; [7]): 0%; inhibition at 10 µM [4, 8]: 0%; inhibition at 10 µM [5, 9]: 11%
25 | NC(=O)N1c2ccccc2CC(=O)c2ccccc21 [Oxcarbazepine, Trileptal] | Q4 | 1% | 0% |  |  | Fibrin % inhibition [4, 13]: 3%; LPS % inhibition [5, 14]: 35%
26 | Cc1cccc(C)c1NC(=O)CN1CCCC1=O [Nefiracetam] | Q4 | 0% | 0% | -21% | 13% | 

— patent US20210330611A1, “THERAPY FOR NEUROLOGICAL DISEASES/DISORDERS” (priority 2020, published 2021)
